The source of these data is publication PMC11820915, “Identification of HIV-1 Reverse Transcriptase-Associated Ribonuclease H Inhibitors Based on 2-Hydroxy-1,4-naphthoquinone Mannich Bases” (Molecules, 2025).

Data set [1] has as its target T1, HIV-1 RT-associated RNase H (Human immunodeficiency virus type 1 group M subtype B, UniProt P03366). The note with it: negative control; ref Min et al. [33]; cited from earlier work.
In another data set the test system is SARS-CoV-2. Briefly: microbe, parasite or virus in culture. Conditions: for EC50: read-out: EC50 for viral replication inhibition. Format: cell-based.
The next data set relates to VEROE6-EGFP cells. Conditions: read-out: CC50 cytotoxic concentration, in the presence of 2 µM CP-100356.
Data set [2] has as its target T1, HIV-1 RT-associated RNase H. Briefly: HIV-1 RT-associated RNase H inhibition assay. Format: biochemical. Set-up: 50 nM of HIV-1 RT. The note with it: IC50, HIV-1 RT-associated RNase H activity, 50 nM HIV-1 RT, 15 min at 37 °C, triplicate. As for the experimental part: HIV-1 RT-associated RNase H inhibition assays were carried out in a 384 multiwell format, in 30 µL reaction volume containing 50 mM Tris–HCl buffer pH 7.8, 6 mM MgCl2, 1 mM dithiothreitol (DTT), 80 mM KCl, 0.25 µM hybrid RNA/DNA 5’-[…]-Fluorescin-3’ 5’-Dabcyl-[…]-3’ increasing concentrations of inhibitor, whose dilutions were made in DMSO, and 50 nM of HIV-1 RT. The reaction mixture was incubated for 15 min at 37 °C and products were measured with a multilabel counter plate reader VictorNivo5 (PerkinElmer, Waltham, MA, USA) equipped with filters for 490/528 nm. IC50, the concentration able to inhibit 50% of enzymatic activity, was calculated by non-linear regression curve fit using Prisme v9.0. All experiments were conducted in triplicate.

Another data set has as its system HIV-1. In kind it is cell-based.
The test system of the next data set is MT4 cells. Kind of data set: Toxicity ZombieAqua test in MT4 cells. Format: cell-based. The note with it: 30 µM, Zombie Aqua.
A further data set in a line: in vitro. The note with it: African green monkey.
The next data set relates to HIV-1 viral DNA. Kind of data set: qPCR of total HIV-1 viral DNA in infected MT4 cells. In kind it is cell-based. Conditions: 30 µM. The method, then: At the same time point, cells were harvested and washed with PBS before centrifugation to form pellets. DNA extraction was carried out using the QIAamp DNA Blood Mini Kit (Qiagen, Hilden, Germany). The procedure involved lysing the cells with AL buffer and Proteinase K to release the DNA. The lysate was then mixed with ethanol to facilitate DNA binding to a silica-based membrane in a spin column. The bound DNA was washed with buffers AW1 and AW2 to remove contaminants, and, finally, the DNA was eluted in 100 μL of water. DNA quantification was performed using quantitative polymerase chain reaction (qPCR) with the Roche LightCycler instrument. Accordingly, DNA quantification was conducted using real-time PCR (qPCR) on the same apparatus. This analysis utilized nucleic acid amounts corresponding to approximately 200,000 cells. The sequences of primers and probes employed for qPCR, aimed at absolute quantification of total HIV-1 viral DNA, have been previously described. The copy numbers of total HIV-1 DNA were ascertained from calibration curves derived from amplifying known quantities of cloned DNA with matching sequences.
A general note: Real-time PCR tracks product formation cycle by cycle.

Several values for one entry are separate records, joined by “and”; a condition that tells them apart may be missing. Equal values may be shown once. Read-outs that look alike come from different tables or passages of the source.

For the molecule `O=C1C=C(O)C(=O)c2ccccc21` [Lawsone, 2-Hydroxy-1,4-naphthoquinone], the “IC50, HIV-1 RT-associated RNase H activity” value in data set [1] is over 100 µM.
As for `CC(C)C[C@H](NC(=O)OCc1ccccc1)C(=O)N[C@@H](CC1CCNC1=O)C(O)S(=O)(=O)O` (stereo partly shown) [GC-376, reference compound], the EC50 with SARS-CoV-2 came out at 0.84 ± 0.08 µM. For the same molecule, the CC50 with VEROE6-EGFP cells was over 100 µM.
For the molecule `CCCCCCCCCCCCCCCCNC(C1=C(O)C(=O)c2ccccc2C1=O)c1cc(Cl)cc(Cl)c1O` (stereo not shown) [Compound 2k], in data set [2], the IC50 is 2.8 to 3.1 µM and 2.8 µM. Further, the “Reduction of percentage of GFP-positive cells” value in the data set with HIV-1 was “half”. Also, the “Toxicity (in words)” value with MT4 cells was “without exhibiting any toxicity”. Further, the CC50 in “in vitro” was 41.2 ± 1.3 µM. In addition, in the data set with SARS-CoV-2 (Severe acute respiratory syndrome coronavirus 2, VEROE6-EGFP cells, in the presence of 2 µM CP-100356), the EC50 is over 41.2 µM. Besides, the “Inhibitory activity against SARS-CoV-2 replication (in words)” value in the data set on SARS-CoV-2 (VEROE6-EGFP cells, with CP-100356) is “inactive”. Further, the “Reduction of viral DNA levels” value in the data set with HIV-1 viral DNA is reported as “over 50%”.

For orientation: EC50 means the concentration that produces a half-maximal response. For orientation: IC50 means the point on the concentration scale where inhibition reaches its midpoint.
